Data published in patent US20250215039A1, “NUCLEOSIDES FOR TREATING CANCER” (PRIMEFOUR THERAPEUTICS, INC., priority 2022, published 2025).
Like-named read-outs stand apart in the source and are kept apart here.

Tested on: cancer cell lines
Assay: Cancer cell proliferation activity (CellTiterGlo, 72 h)
Assay type: cell-based
Conditions: 72 h, 72 h, read-out: IC50 cell proliferation
Protocol: Dose response relationships on cell proliferation was assessed for representative Compounds of the Disclosure on cancer cell lines. Briefly, compound treatment of cells started one day after seeding with a final DMSO concentration of 0.1%, and was performed by nanodrop-dispensing using a Tecan Dispenser. 0.1% DMSO (solvent) and Staurosporine (10 μM) served as high control (100% viability) and low control (0% viability), respectively.
Cells were cultured in the appropriate media. For the assays, cells were seeded in white cell culture-treated flat and clear bottom multiwell plates and incubated at 37° C. overnight before compound was added. After incubation for 72 h at 37° C. at 5% or 10% CO2 dependent on the medium, cell plates were equilibrated to room temperature for one hour, CellTiterGlo reagent (Promega) was added and luminescence was measured approximately an hour later using a luminometer.
Raw data were converted into percent cell viability relative to the high and low control, which were set to 100% and 0%, respectively.
The IC50 values are summarized in Tables 9A-1, Table 10A, and Table 10B.

IC50 (5637 (bladder)): 160 nM | IC50 (CLS439 (bladder)): 770 nM | IC50 (HS729 (muscle)): 120 nM | IC50 (J82 (bladder)): 80 nM | IC50 (JAR (placenta)): 30 nM | IC50 (MT3 (breast)): 40 nM | IC50 (PANCI (pancreas)): 14900 nM | IC50 (PC3 (prostate)): 70 nM | IC50 (RD (muscle)): 70 nM | IC50 (T24 (bladder)): 90 nM | IC50 (Homo sapiens, 22Rv1, 72 h, 22RV1 (prostate)): 250 nM | IC50 (Homo sapiens, 786-0, 72 h, 786O (kidney)): 70 nM | IC50 (Homo sapiens, A204, 72 h, A204 (muscle)): 30 nM | IC50 (Homo sapiens, A549, 72 h, A549 (lung)): 370 nM | IC50 (Homo sapiens, A673, 72 h, A673 (bone)): 360 nM | IC50 (Homo sapiens, A2780, 72 h, A2780 (ovary)): 150 nM | IC50 (Homo sapiens, A-375, 72 h, A375 (skin)): 40 nM | IC50 (Homo sapiens, A-431, 72 h, A431 (skin)): 50 nM | IC50 (Homo sapiens, ACHN, ACHN (kidney)): 460 nM | IC50 (Homo sapiens, ASPC1, 72 h, ASPC1 (pancreas)): 30 nM | IC50 (Homo sapiens, BT-20, 72 h, BT20 (breast)): 70 nM | IC50 (Homo sapiens, BXPC-3, 72 h, BXPC3 (pancreas)): 520 nM | IC50 (Homo sapiens, C-33-A, C33A (endometrial)): 60 nM | IC50 (Homo sapiens, CAKI-1, 72 h, CAKI1 (kidney)): 10 nM | IC50 (Homo sapiens, COLO 205, 72 h, COLO205 (colon)): 170 nM | IC50 (Homo sapiens, COLO-678, 72 h, COLO678 (colon)): 650 nM | IC50 (Homo sapiens, Ca-Ski, CASKI (endometrial)): 40 nM | IC50 (Homo sapiens, Caco-2, 72 h, CACO2 (colon)): 160 nM | IC50 (Homo sapiens, Calu-6, 72 h, CALU6 (lung)): 30 nM | IC50 (Homo sapiens, DLD-1, 72 h, DLD1 (colon)): 350 nM | IC50 (Homo sapiens, DU-145, 72 h, DU145 (prostate)): 20 nM | IC50 (Homo sapiens, EFO-21, 72 h, EFO21 (ovary)): 80 nM | IC50 (Homo sapiens, EJ-28, 72 h, EJ28 (bladder)): 60 nM | IC50 (Homo sapiens, Granta-519, 72 h, GRANTA-519 (hematological)): 2840 nM | IC50 (Homo sapiens, HCT-15, 72 h, HCT15 (colon)): 140 nM | IC50 (Homo sapiens, HCT-116, 72 h, HCT116 (colon)): 160 nM | IC50 (Homo sapiens, HEK293, 72 h, HEK293 (kidney)): 70 nM | IC50 (Homo sapiens, HL-60, 72 h, HL-60 (hematological)): 40 nM | IC50 (Homo sapiens, HT-29, 72 h, HT29 (colon)): 50 nM | IC50 (Homo sapiens, HT-1080, 72 h, HT1080 (connective tissue)): 2090 nM | IC50 (Homo sapiens, HeLa, HELA (endometrial)): 70 nM | IC50 (Homo sapiens, HepG2, 72 h, HEPG2 (liver)): 60 nM | IC50 (Homo sapiens, Hs-578T, HS578T (breast)): 70 nM | IC50 (Homo sapiens, IGROV-1, 72 h, IGROV1 (ovary)): 30 nM | IC50 (Homo sapiens, IMR-90, 72 h, IMR90 (lung)): 50 nM | IC50 (Homo sapiens, JEG-3, 72 h, JEG3 (placenta)): 40 nM | IC50 (Homo sapiens, JIMT-1, 72 h, JIMT1 (breast)): 20 nM | IC50 (Homo sapiens, K562, 72 h, K-562 (hematological)): 1170 nM | IC50 (Homo sapiens, Kasumi 1, 72 h, KASUMI-1 (hematological)): 20 nM | IC50 (Homo sapiens, L-363, 72 h, L-363 (hematological)): 20 nM | IC50 (Homo sapiens, LoVo, LOVO (colon)): 20 nM | IC50 (Homo sapiens, MCF7, 72 h, MCF7 (breast)): 2550 nM | IC50 (Homo sapiens, MDA-MB-231, 72 h, MDAMB231 (breast)): 1060 nM | IC50 (Homo sapiens, MDA-MB-435, 72 h, MDAMB435 (skin)): 190 nM | IC50 (Homo sapiens, MDA-MB-436, 72 h, MDAMB436 (breast)): 50 nM | IC50 (Homo sapiens, MDA-MB-468, 72 h, MDAMB468 (breast)): 90 nM | IC50 (Homo sapiens, MG-63, 72 h, MG63 (bone)): 3610 nM | IC50 (Homo sapiens, MHH-ES-1, 72 h, MHHES1 (bone)): 100 nM | IC50 (Homo sapiens, MIA PaCa-2, 72 h, MIAPACA2 (pancreas)): 7250 nM | IC50 (Homo sapiens, MINO, MINO (hematological)): 20 nM | IC50 (Homo sapiens, MV4-11, 72 h, MV4-11 (hematological)): 20 nM | IC50 (Homo sapiens, NCI-H23, 72 h, NCI-H23 (lung)): 60 nM | IC50 (Homo sapiens, NCI-H82, 72 h, NCIH82 (lung)): 70 nM | IC50 (Homo sapiens, NCI-H292, 72 h, NCIH292 (lung)): 830 nM | IC50 (Homo sapiens, NCI-H460, 72 h, NCIH460 (lung)): 40 nM | IC50 (Homo sapiens, OVCAR-3, 72 h, OVCAR3 (ovary)): 30 nM | IC50 (Homo sapiens, OVCAR-4, 72 h, OVCAR4 (ovary)): 80 nM | IC50 (Homo sapiens, PLC-PRF-5, 72 h, PLCPRF5 (liver)): 450 nM | IC50 (Homo sapiens, Panc1005, 72 h, PANC1005 (pancreas)): 60 nM | IC50 (Homo sapiens, Ramos, RAMOS (hematological)): 130 nM | IC50 (Homo sapiens, SAOS-2, 72 h, SAOS2 (bone)): 50 nM | IC50 (Homo sapiens, SF-268, 72 h, SF268 (brain)): 1880 nM | IC50 (Homo sapiens, SF-295, 72 h, SF295 (brain)): 230 nM | IC50 (Homo sapiens, SK-BR-3, 72 h, SKBR3 (breast)): 10 nM | IC50 (Homo sapiens, SK-HEP1, 72 h, SKHEP1 (liver)): 450 nM | IC50 (Homo sapiens, SK-LMS-1, 72 h, SKLMS1 (uterus)): 40 nM | IC50 (Homo sapiens, SK-MEL-5, 72 h, SKMEL5 (skin; SKMELS [sic] in Table 9E)): 580 nM | IC50 (Homo sapiens, SK-MEL-28, 72 h, SKMEL28 (skin)): 100 nM | IC50 (Homo sapiens, SK-N-AS, SKNAS (brain)): 70 nM | IC50 (Homo sapiens, SK-N-SH, SKNSH (brain)): 30 nM | IC50 (Homo sapiens, SK-OV-3, 72 h, SKOV3 (ovary)): 60 nM | IC50 (Homo sapiens, SNB-75, 72 h, SNB75 (brain)): 160 nM | IC50 (Homo sapiens, SU-DHL10, 72 h, SU-DHL-10 (hematological)): 440 nM | IC50 (Homo sapiens, SU-DHL-6, 72 h, SU-DHL-6 (hematological)): 30 nM | IC50 (Homo sapiens, SW-620, 72 h, SW620 (colon)): 50 nM | IC50 (Homo sapiens, TE-671, 72 h, TE671 (muscle)): 370 nM | IC50 (Homo sapiens, THP-1, 72 h, THP-1 (hematological)): 1770 nM | IC50 (Homo sapiens, U2OS, U20S (bone; U2OS in Table 9E)): 60 nM | IC50 (Homo sapiens, U-87 MG, U87MG (brain)): 2010 nM | IC50 (Homo sapiens, UMUC3, 72 h, UMUC3 (bladder)): 980 nM | IC50 (Homo sapiens, UO-31, 72 h, UO31 (kidney)): 40 nM | IC50 (Homo sapiens, WSU-NHL, WSU-NHL (hematological)): 30 nM | IC50 (NCI-H358M, NCIH358M (lung)): 70 nM | IC50 (PBMC, PBMC (hematological)): 320 nM | IC50 (RD-ES, RDES (bone)): 30 nM
SMILES: C[C@]1(CO)O[C@@H](n2cnc3c(N)nc(F)nc32)[C@H](O)[C@@H]1O [Cpd. No. 178, (2R,3S,4R,5R)-5-(6-amino-2-fluoro-9H-purin-9-yl)-2-(hydroxymethyl)-2-methyltetrahydrofuran-3,4-diol]
